Assay results reported in US9695155B2, “Herbicidal substituted pyrimidinyloxy benzene compounds” (E. I. DU PONT DE NEMOURS AND COMPANY, priority 2013, dated 2017).

Experiments:
[1] = tested on: Italian ryegrass; assay: Test C preemergence; type: in vivo, Lolium multiflorum
Summary of the method: (§1)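 Whole-plant greenhouse test with surfactant-containing solvent formulation, applied preemergence to sown loam–sand pots or postemergence to 2–18 cm plants. Scored by eye 13 to 15 days on, 0–100 scale.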

[2] = tested on: galium; assay: Test C preemergence; type: in vivo, Galium aparine; settings: Galium, pre-emergence
Summary of the method: as §1

[3] = tested on: velvetleaf; assay: Test A preemergence; type: in vivo, Abutilon theophrasti; settings: Abutilon theophrasti, pre-emergence, 240 h, read-out: Velvetleaf plant response rating
Summary of the method: (§2)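 Compounds in non-phytotoxic solvent with surfactant applied as soil spray preemergence, or postemergence to plants 2-10 cm at one- to two-leaf stage, in loam/sand. After approximately 10 days in greenhouse, injury rated visually versus untreated controls, 0 (no effect) to 100 (complete control).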

[4] = tested on: barnyardgrass; assay: Test A preemergence; type: in vivo, Echinochloa crus-galli
Summary of the method: as §2

[5] = tested on: wild oat; assay: Test C postemergence; type: in vivo, Avena fatua; settings: Avena fatua, post-emergence
Summary of the method: as §1

[6] = tested on: chickweed; assay: Test C postemergence; type: in vivo, Stellaria media; settings: Stellaria media, post-emergence
Summary of the method: as §1

[7] = tested on: morningglory; assay: Test A preemergence; type: in vivo, Ipomoea spp.; settings: Ipomoea, pre-emergence, 240 h, read-out: Morningglory plant response rating
Summary of the method: as §2

[8] = tested on: large (Lg) crabgrass; assay: Test C preemergence; type: in vivo, Digitaria sanguinalis
Summary of the method: as §1

[9] = tested on: corn; assay: Test A postemergence; type: in vivo, Zea mays
Summary of the method: as §2

[10] = tested on: soybean; assay: Test C preemergence; type: in vivo, Glycine max
Summary of the method: as §1

[11] = tested on: wheat; assay: Test A preemergence; type: in vivo, Triticum aestivum; settings: Triticum aestivum, pre-emergence, 240 h, read-out: Wheat plant response rating
Summary of the method: as §2

[12] = tested on: barnyardgrass; assay: Test B flooded paddy test; type: in vivo, Echinochloa crus-galli; settings: Flood, 250 g ai/ha, 0 to 100 scale where 0 is no effect and 100 is complete control
Summary of the method: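 Flooded to 3 cm at the 2-leaf stage, pots received compound through the paddy water and were kept at that depth under greenhouse conditions. After 13–15 days, effect was rated by eye relative to controls, 0 = none and 100 = complete control.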

[13] = tested on: barnyardgrass; assay: Test C preemergence; type: in vivo, Echinochloa crus-galli; settings: for Barnyardgrass plant response rating: preemergence
Excerpt: (§3) Seeds of plant species selected from blackgrass (Alopecurus myosuroides), Italian ryegrass (Lolium multiflorum), wheat, winter (winter wheat, Triticum aestivum), galium (catchweed bedstraw, Galium aparine), corn (Zea mays), large (Lg) crabgrass (Digitaria sanguinalis), giant foxtail (Setaria faberii), johnsongrass (Sorghum halepense), lambsquarters (Chenopodium album), morningglory (Ipomoea coccinea), yellow nutsedge (Cyperus esculentus), pigweed (Amaranthus retroflexus), ragweed (common ragweed, Ambrosia elatior), soybean (Glycine max), barnyardgrass (Echinochloa crus-galli), oilseed rape (Brassica napus), waterhemp (common waterhemp, Amaranthus rudis), kochia (Kochia scoparia), wild oat (Avena fatua), surinam grass (Brachiaria decumbens), foxtail, green (green foxtail, Setaria viridis), goosegrass (Eleusine indica), bromegrass, downy (downy bromegrass, Bromus tectorum), nightshade (eastern black nightshade, Solanum ptycanthum), cocklebur (common cocklebur, Xanthium strumarium), cupgrass, woolly (woolly cupgrass, Eriochloa villosa), bermudagrass (Cynodon dactylon), sunflower, (common oilseed sunflower, Helianthus annuus), Russian thistle (Salsola kali), and velvetleaf (Abutilon theophrasti) were planted into a blend of loam soil and sand and treated preemergence with test chemicals formulated in a non-phytotoxic solvent mixture which included a surfactant.
(§4) At the same time, plants selected from these crop and weed species and also barley, winter (winter barley, Hordeum vulgare), windgrass (Apera spica-venti), chickweed (common chickweed, Stellaria media), deadnettle (henbit deadnettle, Lamium amplexicaule), and canarygrass (littleseed canarygrass, Phalaris minor) were planted in pots containing Redi-Earth® planting medium (Scotts Company, 14111 Scottslawn Road, Marysville, Ohio 43041) comprising spaghnum peat moss, vermiculite, wetting agent and starter nutrients and treated with postemergence applications of test chemicals formulated in the same manner. Plants ranged in height from 2 to 18 cm (1- to 4-leaf stage) for postemergence treatments. Treated plants and controls were maintained in a greenhouse for 13 to 15 days, after which time all species were compared to controls and visually evaluated. Plant response ratings, summarized in Table C, are based on a scale of 0 to 100 where 0 is no effect and 100 is complete control. A dash (-) response means no test result.

[14] = tested on: oilseed rape; assay: Test C preemergence; type: in vivo, Brassica napus; settings: preemergence
Excerpt: as §3, §4

[15] = 125 g ai/ha, 0 to 100 scale where 0 is no effect and 100 is complete control
[16] = 500 g ai/ha, 0 to 100 scale, 0 no effect, 100 complete control, approx. 10 days
[17] = 16 g ai/ha, preemergence, scale 0 to 100 (0 no effect, 100 complete control)
[18] = 62 g ai/ha, preemergence, scale 0 (no effect) to 100 (complete control)
[19] = 125 g ai/ha, preemergence, scale 0 (no effect) to 100 (complete control)
[20] = 16 g ai/ha, scale 0 to 100 (0 no effect, 100 complete control)
[21] = 62 g ai/ha, scale 0 (no effect) to 100 (complete control)
[22] = 125 g ai/ha, scale 0 (no effect) to 100 (complete control)
[23] = Preemergence, 31 g ai/ha, scale 0 to 100, 0 no effect, 100 complete control

## Clc1cnc(Oc2ccccc2-n2cc(Br)cn2)nc1 [Compound 7, 2-[2-(4-bromo-1H-pyrazol-1-yl)phenoxy]-5-chloropyrimidine]
[1]; Lolium multiflorum, pre-emergence, 62 g ai/ha, preemergence, scale 0 (no effect) to 100 (complete control), read-out: Ryegrass, Italian plant response rating
  pest or weed control at 62 g/ha: 0%
[1]; Lolium multiflorum, pre-emergence, 125 g ai/ha, preemergence, scale 0 (no effect) to 100 (complete control), read-out: Ryegrass, Italian plant response rating
  pest or weed control at 125 g/ha: 5%
[1]; Lolium multiflorum, pre-emergence, 250 g ai/ha, preemergence, scale 0 (no effect) to 100 (complete control), read-out: Ryegrass, Italian plant response rating
  pest or weed control at 250 g/ha: 40%
[1]; Lolium multiflorum, pre-emergence, Preemergence, 31 g ai/ha, scale 0 to 100, 0 no effect, 100 complete control, read-out: Plant response rating, Ryegrass, Italian
  pest or weed control at 31 g/ha: 0%
[2]; 62 g ai/ha, preemergence, scale 0 (no effect) to 100 (complete control), read-out: Galium plant response rating
  pest or weed control at 62 g/ha: 100%
[2]; 125 g ai/ha, preemergence, scale 0 (no effect) to 100 (complete control), read-out: Galium plant response rating
  pest or weed control at 125 g/ha: 100%
[2]; 250 g ai/ha, preemergence, scale 0 (no effect) to 100 (complete control), read-out: Galium plant response rating
  pest or weed control at 250 g/ha: 100%
[2]; Preemergence, 31 g ai/ha, scale 0 to 100, 0 no effect, 100 complete control, read-out: Plant response rating, Galium
  pest or weed control at 31 g/ha: 85%
[3]; [15]
  pest or weed control at 125 g/ha: 100%
[3]; [16]
  pest or weed control at 500 g/ha: 100%
[4]; Echinochloa crus-galli, pre-emergence, 240 h, 125 g ai/ha, 0 to 100 scale where 0 is no effect and 100 is complete control, read-out: Barnyardgrass plant response rating
  pest or weed control at 125 g/ha: 80%
[4]; Echinochloa crus-galli, pre-emergence, 240 h, 500 g ai/ha, 0 to 100 scale, 0 no effect, 100 complete control, approx. 10 days, read-out: Barnyardgrass plant response rating
  pest or weed control at 500 g/ha: 100%
[5]; 125 g ai/ha, postemergence, read-out: Plant response rating (0 to 100), Oat, Wild
  pest or weed control at 125 g/ha: 35%
[5]; 250 g ai/ha, postemergence, read-out: Plant response rating (0 to 100), Oat, Wild
  pest or weed control at 250 g/ha: 55%
[5]; Postemergence, 31 g ai/ha, scale 0 to 100 (0 no effect, 100 complete control), 13 to 15 days, read-out: Plant response rating, Oat, Wild
  pest or weed control at 31 g/ha: 5%
[5]; Postemergence, 62 g ai/ha, scale 0 to 100 (0 no effect, 100 complete control), read-out: Plant response rating, Oat, Wild
  pest or weed control at 62 g/ha: 35%
[6]; 125 g ai/ha, postemergence, read-out: Plant response rating (0 to 100), Chickweed
  pest or weed control at 125 g/ha: 90%
[6]; 250 g ai/ha, postemergence, read-out: Plant response rating (0 to 100), Chickweed
  pest or weed control at 250 g/ha: 98%
[6]; Postemergence, 31 g ai/ha, scale 0 to 100 (0 no effect, 100 complete control), 13 to 15 days, read-out: Plant response rating, Chickweed
  pest or weed control at 31 g/ha: 80%
[7]; [15]
  pest or weed control at 125 g/ha: 20%
[7]; [16]
  pest or weed control at 500 g/ha: 70%
[8]; Digitaria sanguinalis, pre-emergence, 62 g ai/ha, preemergence, scale 0 (no effect) to 100 (complete control), read-out: Crabgrass, Large plant response rating
  pest or weed control at 62 g/ha: 98%
[8]; Digitaria sanguinalis, pre-emergence, 125 g ai/ha, preemergence, scale 0 (no effect) to 100 (complete control), read-out: Crabgrass, Large plant response rating
  pest or weed control at 125 g/ha: 100%
[8]; Digitaria sanguinalis, pre-emergence, 250 g ai/ha, preemergence, scale 0 (no effect) to 100 (complete control), read-out: Crabgrass, Large plant response rating
  pest or weed control at 250 g/ha: 100%
[8]; Digitaria sanguinalis, pre-emergence, Preemergence, 31 g ai/ha, scale 0 to 100, 0 no effect, 100 complete control, read-out: Plant response rating, Crabgrass, Large
  pest or weed control at 31 g/ha: 80%
[9]; Zea mays, post-emergence, 240 h, 125 g ai/ha, 0 to 100 scale where 0 is no effect and 100 is complete control
  Corn plant response rating (crop injury, 0 = no effect, 100 = complete kill) at 125 g/ha: 30%
[9]; Zea mays, post-emergence, 240 h, 500 g ai/ha, 0 to 100 scale, 0 no effect, 100 complete control, read-out: Plant response rating Corn
  plant injury at 500 g/ha: 50%
[10]; Glycine max, pre-emergence, 62 g ai/ha, preemergence, scale 0 (no effect) to 100 (complete control), read-out: Soybean plant response rating
  plant injury at 62 g/ha: 40%
[10]; Glycine max, pre-emergence, 125 g ai/ha, preemergence, scale 0 (no effect) to 100 (complete control), read-out: Soybean plant response rating
  plant injury at 125 g/ha: 60%
[10]; Glycine max, pre-emergence, 250 g ai/ha, preemergence, scale 0 (no effect) to 100 (complete control), read-out: Soybean plant response rating
  plant injury at 250 g/ha: 98%
[10]; Glycine max, pre-emergence, Preemergence, 31 g ai/ha, scale 0 to 100, 0 no effect, 100 complete control, read-out: Plant response rating, Soybean
  plant injury at 31 g/ha: 15%
[11]; [15]
  plant injury at 125 g/ha: 0%
[11]; [16]
  plant injury at 500 g/ha: 20%
[12]; Echinochloa crus-galli, read-out: Plant response rating, Barnyardgrass
  pest or weed control at 250 g/ha: 30%

## N#Cc1cnn(-c2c(CF)cccc2Oc2ncc(F)cn2)c1 [Compound 151]
[1]; [17]
  Ryegrass, Italian plant response rating: 0
[1]; [18]
  Ryegrass, Italian plant response rating: 35
[1]; [19]
  Ryegrass, Italian plant response rating: 45
[4]; 31 g ai/ha, 0 to 100 scale where 0 is no effect and 100 is complete control, visual, approximately 10 days
  Plant response rating, Barnyardgrass: 20
[4]; [15]
  Plant response rating, Barnyardgrass: 60
[13]; [20]
  Barnyardgrass plant response rating: 5
[13]; [21]
  Barnyardgrass plant response rating: 70
[13]; [22]
  Barnyardgrass plant response rating: 100
[13]; [23]
  Plant response rating, Barnyardgrass: 5
[14]; [20]
  Oilseed Rape plant response rating: 95
[14]; [21]
  Oilseed Rape plant response rating: 100
[14]; [22]
  Oilseed Rape plant response rating: 100
[8]; [17]
  Crabgrass, Large plant response rating: 5
[8]; [18]
  Crabgrass, Large plant response rating: 98
[8]; [19]
  Crabgrass, Large plant response rating: 100
[8]; [23]
  Plant response rating, Crabgrass, Large: 85
[9]; 31 g ai/ha, 0 to 100 scale, 0 no effect, 100 complete control
  Plant response rating, Corn: 0
[9]; [15]
  Corn plant response rating: 40
[10]; [17]
  Soybean plant response rating: 35
[10]; [18]
  Soybean plant response rating: 85
[10]; [19]
  Soybean plant response rating: 95
[12]
  Plant response rating, Barnyardgrass: 0
